Strand notation (5' to 3'): a small letter for the sugar, then the base; units joined by * are phosphorothioate-linked, units joined directly phosphodiester-linked; [ ] holds rarer units or linkages, { } end groups; capitals alone tell only the bases. e = 2'-O-(2-methoxyethyl) (MOE); k = constrained ethyl (cEt); [5mC] = 5-methylcytosine; d = 2'-deoxy (DNA)
Tested on: human PKK mRNA
Assay: Antisense inhibition of human PKK mRNA in HepaRG cells, 1,000 nM, MOE/deoxy/cEt oligonucleotides (Example 3)
Format: cell-based
Settings: Table 19; HepaRG cells, electroporation with 1,000 nM antisense oligonucleotide, approximately 24 hours; PKK mRNA by RT-PCR (RTS3454), relative to untreated control cells
Method in brief: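 HepaRG cells at 20,000 per well electroporated with 1,000 nM 16-mer MOE/cEt/deoxy gapmers (phosphorothioate, 5-methylcytosine). After about 24 h, PKK mRNA measured by qRT-PCR with primer probe set RTS3454, normalized to RIBOGREEN total RNA. Reported as percent inhibition versus untreated cells.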

Row | Substance | % inhibition
1 | 548088 (antisense eA*eA*k[5mC]*dT*dA*dA*dG*dG*dG*dA*d[5mC]*d[5mC]*dA*k[5mC]*k[5mC]*eT) [compound 548088] | 27%
2 | 548089 (antisense eA*eA*kA*d[5mC]*dT*dA*dA*dG*dG*dG*dA*d[5mC]*d[5mC]*kA*k[5mC]*e[5mC]) [compound 548089] | 34%
3 | 548090 (antisense e[5mC]*eA*kA*dA*d[5mC]*dT*dA*dA*dG*dG*dG*dA*d[5mC]*k[5mC]*kA*e[5mC]) [compound 548090] | 46%
4 | 548091 (antisense eT*eG*k[5mC]*dA*dA*dA*d[5mC]*dT*dA*dA*dG*dG*dG*kA*k[5mC]*e[5mC]) [compound 548091] | 62%
5 | 548092 (antisense eT*eT*kG*d[5mC]*dA*dA*dA*d[5mC]*dT*dA*dA*dG*dG*kG*kA*e[5mC]) [compound 548092] | 30%
6 | 548093 (antisense eT*eT*kT*dG*d[5mC]*dA*dA*dA*d[5mC]*dT*dA*dA*dG*kG*kG*eA) [compound 548093] | 0%
7 | 548094 (antisense eG*eT*kT*dT*dG*d[5mC]*dA*dA*dA*d[5mC]*dT*dA*dA*kG*kG*eG) [compound 548094] | 74%
8 | 548095 (antisense eT*eG*kT*dT*dT*dG*d[5mC]*dA*dA*dA*d[5mC]*dT*dA*kA*kG*eG) [compound 548095] | 35%
9 | 548096 (antisense eG*eT*kG*dT*dT*dT*dG*d[5mC]*dA*dA*dA*d[5mC]*dT*kA*kA*eG) [compound 548096] | 23%
10 | 548097 (antisense eT*eG*k[5mC]*dT*d[5mC]*d[5mC]*d[5mC]*dT*dG*d[5mC]*dG*dG*dG*k[5mC]*kA*e[5mC]) [compound 548097] | 2%
11 | 548098 (antisense eA*eG*kA*d[5mC]*dA*d[5mC]*d[5mC]*dA*dG*dG*dT*dT*dG*k[5mC]*kT*e[5mC]) [compound 548098] | 0%
12 | 548099 (antisense e[5mC]*eT*k[5mC]*dA*dG*d[5mC]*dG*dA*d[5mC]*dT*dT*dT*dG*kG*kT*eG) [compound 548099] | 55%
13 | 548100 (antisense eA*e[5mC]*kT*d[5mC]*dA*dG*d[5mC]*dG*dA*d[5mC]*dT*dT*dT*kG*kG*eT) [compound 548100] | 25%
14 | 548101 (antisense eT*eA*k[5mC]*dT*d[5mC]*dA*dG*d[5mC]*dG*dA*d[5mC]*dT*dT*kT*kG*eG) [compound 548101] | 47%
15 | 548102 (antisense eG*eT*kA*d[5mC]*dT*d[5mC]*dA*dG*d[5mC]*dG*dA*d[5mC]*dT*kT*kT*eG) [compound 548102] | 58%
16 | 548103 (antisense eT*eG*kT*dA*d[5mC]*dT*d[5mC]*dA*dG*d[5mC]*dG*dA*d[5mC]*kT*kT*eT) [compound 548103] | 66%
17 | 548104 (antisense eA*eT*kG*dT*dA*d[5mC]*dT*d[5mC]*dA*dG*d[5mC]*dG*dA*k[5mC]*kT*eT) [compound 548104] | 59%
18 | 548105 (antisense e[5mC]*eA*kT*dG*dT*dA*d[5mC]*dT*d[5mC]*dA*dG*d[5mC]*dG*kA*k[5mC]*eT) [compound 548105] | 49%
19 | 548107 (antisense eT*e[5mC]*k[5mC]*dA*dT*dG*dT*dA*d[5mC]*dT*d[5mC]*dA*dG*k[5mC]*kG*eA) [compound 548107] | 76%
20 | 548108 (antisense eG*eA*kG*d[5mC]*dT*dT*dT*dT*d[5mC]*d[5mC]*dA*dT*d[5mC]*kA*k[5mC]*eT) [compound 548108] | 61%
21 | 548110 (antisense eT*eG*k[5mC]*dA*dT*d[5mC]*dT*dG*dA*dG*d[5mC]*dT*dT*kT*kT*e[5mC]) [compound 548110] | 62%
22 | 548111 (antisense eG*eA*k[5mC]*dT*dG*d[5mC]*dA*dT*d[5mC]*dT*dG*dA*dG*k[5mC]*kT*eT) [compound 548111] | 53%
23 | 548112 (antisense eG*eT*kG*dA*d[5mC]*dT*dG*d[5mC]*dA*dT*d[5mC]*dT*dG*kA*kG*e[5mC]) [compound 548112] | 23%
24 | 548113 (antisense eG*eG*kT*dG*dA*d[5mC]*dT*dG*d[5mC]*dA*dT*d[5mC]*dT*kG*kA*eG) [compound 548113] | 56%
25 | 548114 (antisense eT*eG*kG*dT*dG*dA*d[5mC]*dT*dG*d[5mC]*dA*dT*d[5mC]*kT*kG*eA) [compound 548114] | 70%
26 | 548115 (antisense e[5mC]*eA*kT*dG*d[5mC]*dT*dG*dG*dT*dG*dA*d[5mC]*dT*kG*k[5mC]*eA) [compound 548115] | 76%
27 | 548116 (antisense eT*e[5mC]*kA*dT*dG*d[5mC]*dT*dG*dG*dT*dG*dA*d[5mC]*kT*kG*e[5mC]) [compound 548116] | 3%

Row | Substance | % inhibition
28 | 548117 (antisense e[5mC]*eT*k[5mC]*dA*dT*dG*d[5mC]*dT*dG*dG*dT*dG*dA*k[5mC]*kT*eG) [compound 548117] | 73%
29 | 548118 (antisense eT*e[5mC]*kT*d[5mC]*dA*dT*dG*d[5mC]*dT*dG*dG*dT*dG*kA*k[5mC]*eT) [compound 548118] | 47%
30 | 548119 (antisense eT*eG*kG*dA*d[5mC]*dT*dG*d[5mC]*dT*dT*d[5mC]*dT*d[5mC]*kA*kT*eG) [compound 548119] | 25%
31 | 548121 (antisense eT*e[5mC]*kT*dG*dG*dA*d[5mC]*dT*dG*d[5mC]*dT*dT*d[5mC]*kT*k[5mC]*eA) [compound 548121] | 64%
32 | 548122 (antisense e[5mC]*eT*k[5mC]*dT*dG*dG*dA*d[5mC]*dT*dG*d[5mC]*dT*dT*k[5mC]*kT*e[5mC]) [compound 548122] | 55%
33 | 548123 (antisense eA*eG*kA*d[5mC]*dT*d[5mC]*dT*dG*dG*dA*d[5mC]*dT*dG*k[5mC]*kT*eT) [compound 548123] | 49%
34 | 548124 (antisense eT*eA*kG*dA*d[5mC]*dT*d[5mC]*dT*dG*dG*dA*d[5mC]*dT*kG*k[5mC]*eT) [compound 548124] | 51%
35 | 548126 (eT*eG*k[5mC]*d[5mC]*dT*dA*dG*dA*d[5mC]*dT*d[5mC]*dT*dG*kG*kA*e[5mC]; antisense) [compound 548126] | 19%
36 | 548127 (eT*eT*kG*d[5mC]*d[5mC]*dT*dA*dG*dA*d[5mC]*dT*d[5mC]*dT*kG*kG*eA; antisense) [compound 548127] | 60%
37 | 548129 (eT*eT*kT*dG*dA*d[5mC]*dT*dT*dG*dA*dA*d[5mC]*dT*k[5mC]*kA*eG; antisense) [compound 548129] | 35%
38 | 548130 (eA*eT*kT*dT*dG*dA*d[5mC]*dT*dT*dG*dA*dA*d[5mC]*kT*k[5mC]*eA; antisense) [compound 548130] | 27%
39 | 548131 (eA*eA*kT*dT*dT*dG*dA*d[5mC]*dT*dT*dG*dA*dA*k[5mC]*kT*e[5mC]; antisense) [compound 548131] | 45%
40 | 548132 (eG*eA*kA*dT*dT*dT*dG*dA*d[5mC]*dT*dT*dG*dA*kA*k[5mC]*eT; antisense) [compound 548132] | 0%
41 | 548133 (eA*eG*kA*dA*dT*dT*dT*dG*dA*d[5mC]*dT*dT*dG*kA*kA*e[5mC]; antisense) [compound 548133] | 23%
42 | 548134 (e[5mC]*eA*kG*dA*dA*dT*dT*dT*dG*dA*d[5mC]*dT*dT*kG*kA*eA; antisense) [compound 548134] | 17%
43 | 548135 (eT*e[5mC]*kA*dG*dA*dA*dT*dT*dT*dG*dA*d[5mC]*dT*kT*kG*eA; antisense) [compound 548135] | 46%
44 | 548136 (eG*eG*k[5mC]*dT*d[5mC]*dA*dG*dA*dA*dT*dT*dT*dG*kA*k[5mC]*eT; antisense) [compound 548136] | 39%
45 | 548137 (eA*eG*kG*d[5mC]*dT*d[5mC]*dA*dG*dA*dA*dT*dT*dT*kG*kA*e[5mC]; antisense) [compound 548137] | 62%
46 | 548138 (e[5mC]*e[5mC]*k[5mC]*d[5mC]*dA*dG*dG*d[5mC]*dT*d[5mC]*dA*dG*dA*kA*kT*eT; antisense) [compound 548138] | 52%
47 | 548139 (eA*eG*kA*dT*dG*dA*dG*dG*dA*d[5mC]*d[5mC]*d[5mC]*d[5mC]*k[5mC]*k[5mC]*eA; antisense) [compound 548139] | 56%
48 | 548140 (e[5mC]*eA*kG*dA*dT*dG*dA*dG*dG*dA*d[5mC]*d[5mC]*d[5mC]*k[5mC]*k[5mC]*e[5mC]; antisense) [compound 548140] | 74%
49 | 548141 (eG*e[5mC]*kA*dG*dA*dT*dG*dA*dG*dG*dA*d[5mC]*d[5mC]*k[5mC]*k[5mC]*e[5mC]; antisense) [compound 548141] | 66%
50 | 548142 (eA*e[5mC]*kT*d[5mC]*dT*d[5mC]*d[5mC]*dA*dT*dG*d[5mC]*dT*dT*kT*kG*e[5mC]; antisense) [compound 548142] | 44%
51 | 548143 (e[5mC]*eA*k[5mC]*dT*d[5mC]*dT*d[5mC]*d[5mC]*dA*dT*dG*d[5mC]*dT*kT*kT*eG; antisense) [compound 548143] | 39%
52 | 548144 (eA*eT*kG*d[5mC]*d[5mC]*dA*d[5mC]*dT*d[5mC]*dT*d[5mC]*d[5mC]*dA*kT*kG*e[5mC]; antisense) [compound 548144] | 52%
53 | 548145 (eA*eT*kG*d[5mC]*dA*dA*dA*dG*dA*dA*dG*dA*dT*kG*k[5mC]*e[5mC]; antisense) [compound 548145] | 63%
54 | 548146 (eG*eT*k[5mC]*d[5mC]*dT*dT*dA*dG*dG*dA*dT*dG*d[5mC]*kA*kA*eA; antisense) [compound 548146] | 68%
